Assay results taken from BindingDB's records for doi:10.1016/j.bmc.2018.11.013 (Csir-Indian Institute of Integrative Medicine, 2018).

experiment: Inhibition of human CYP1A1 expressed in HEK293 cells assessed as reduction in CYP1A1 mediated B[alpha]P-7,8- dihydrodiol induced-toxicity by measuring EC50 at 3 times of IC50 concentration by MTT assay (Rvb = 1.4 +/ 0.4 uM)

Structure (SMILES)	EC50 [µM]
O=c1cc(-c2ccccc2)oc2c1ccc1occc12 [LANCEOLATIN B]	14.4
COc1c(C(=O)/C=C(\O)c2ccccc2)ccc2occc12 [Pongamol]	10.2
COc1c(-c2ccc3c(c2)OCO3)oc2c(ccc3occc32)c1=O [Pongapin]	14.8
